What was measured:
EBC-1 cell line = assay: Cell proliferation inhibition experiment (CellTiter-Glo), EBC-1; assay type: cell-based; details: Homo sapiens, CTG, 72 h
Description: (§1) CellTiter-Glo™ live cell detection kit adopts luciferase as the detection substance, and the luciferase needs the participation of ATP in the luminescence process. CellTiter-Glo™ reagent was added into the cell culture medium and the luminescence value was measured. The light signal is in direct proportion to the amount of ATP in the system, ATP is in direct correlation with number of living cells. Therefore, the proliferation of cells can be detected by detecting the content of ATP with CellTiter-Glo kit.
(§2) In the experiment, the proliferation inhibition effect of the prepared compounds on tumor cell lines Hs746T, EBC-1 and H1993 was measured by a celltiter-glo (CTG) method, and 50% inhibition concentration IC50 was calculated.
(§3) The compounds were determined on the selected cells, the solvent control was set and a total of 10 concentrations were detected, 2 replicates per concentration.
(§4) a) Cells in the logarithmic growth phase were harvested and counted by a […]. The cell viability was detected by a trypan blue exclusion method to ensure that the cell viability was over 90%.
(§5) b) The cell concentration was adjusted; 30 μL of cell suspension was added to a 384-well plate respectively.
(§6) c) Cells in a 384-well plate were incubated overnight at 37° C., 5% CO2 and 95% humidity.
(§7) a) 10 times of drug solution was prepared with the highest concentration of 10 mM, 10 concentrations and 3 times dilution, 10 μL of drug solution was added into each well of a 384-well plate inoculated with cells, and three multiple wells were arranged for each drug concentration. DMSO was the blank control.
(§8) b) The cells in the 384-well plate were incubated for a further 72 h at 37° C., 5% CO2 and 95% humidity before CTG analysis.
(§9) a) The CTG reagent was melted and the cell plate was equilibrated to room temperature for 30 min.
(§10) b) An equal volume of CTG solution was added to each well.
(§11) c) Cells were lysed by shaking on an orbital shaker for 5 minutes.
(§12) d) The cell plate was left at room temperature for 20 minutes to stabilize the luminescence signal.
(§13) e) The cold light value was read.
(§14) The data was analyzed by GraphPad Prism 8 software, and the dose-response curve was fitted with nonlinear S-curve regression, and the IC50 value was calculated therefrom.
(§15) Cell viability(%)=(Lumdrugs to be tested-Lumblank control)/(Lumcell control-Lumblank control)×100%.

H1993 cell line = assay: Cell proliferation inhibition experiment (CellTiter-Glo), H1993; assay type: cell-based; details: Homo sapiens, NCI-H1993, CTG, 72 h
Description: as §1, §2, §3, §4, §5, §6, §7, §8, §9, §10, §11, §12, §13, §14, §15

[1] = biological target: T1, wild type (WT) MET kinase (Homo sapiens, UniProt P08581); assay: Kinase inhibition experiment (HTRF KinEASE-TK kit), wild-type MET; assay type: biochemical; details: 10 concentrations, 3-fold dilution
T1 construct: purchased Carna 08-151
T1 sequence (P08581 25-1390): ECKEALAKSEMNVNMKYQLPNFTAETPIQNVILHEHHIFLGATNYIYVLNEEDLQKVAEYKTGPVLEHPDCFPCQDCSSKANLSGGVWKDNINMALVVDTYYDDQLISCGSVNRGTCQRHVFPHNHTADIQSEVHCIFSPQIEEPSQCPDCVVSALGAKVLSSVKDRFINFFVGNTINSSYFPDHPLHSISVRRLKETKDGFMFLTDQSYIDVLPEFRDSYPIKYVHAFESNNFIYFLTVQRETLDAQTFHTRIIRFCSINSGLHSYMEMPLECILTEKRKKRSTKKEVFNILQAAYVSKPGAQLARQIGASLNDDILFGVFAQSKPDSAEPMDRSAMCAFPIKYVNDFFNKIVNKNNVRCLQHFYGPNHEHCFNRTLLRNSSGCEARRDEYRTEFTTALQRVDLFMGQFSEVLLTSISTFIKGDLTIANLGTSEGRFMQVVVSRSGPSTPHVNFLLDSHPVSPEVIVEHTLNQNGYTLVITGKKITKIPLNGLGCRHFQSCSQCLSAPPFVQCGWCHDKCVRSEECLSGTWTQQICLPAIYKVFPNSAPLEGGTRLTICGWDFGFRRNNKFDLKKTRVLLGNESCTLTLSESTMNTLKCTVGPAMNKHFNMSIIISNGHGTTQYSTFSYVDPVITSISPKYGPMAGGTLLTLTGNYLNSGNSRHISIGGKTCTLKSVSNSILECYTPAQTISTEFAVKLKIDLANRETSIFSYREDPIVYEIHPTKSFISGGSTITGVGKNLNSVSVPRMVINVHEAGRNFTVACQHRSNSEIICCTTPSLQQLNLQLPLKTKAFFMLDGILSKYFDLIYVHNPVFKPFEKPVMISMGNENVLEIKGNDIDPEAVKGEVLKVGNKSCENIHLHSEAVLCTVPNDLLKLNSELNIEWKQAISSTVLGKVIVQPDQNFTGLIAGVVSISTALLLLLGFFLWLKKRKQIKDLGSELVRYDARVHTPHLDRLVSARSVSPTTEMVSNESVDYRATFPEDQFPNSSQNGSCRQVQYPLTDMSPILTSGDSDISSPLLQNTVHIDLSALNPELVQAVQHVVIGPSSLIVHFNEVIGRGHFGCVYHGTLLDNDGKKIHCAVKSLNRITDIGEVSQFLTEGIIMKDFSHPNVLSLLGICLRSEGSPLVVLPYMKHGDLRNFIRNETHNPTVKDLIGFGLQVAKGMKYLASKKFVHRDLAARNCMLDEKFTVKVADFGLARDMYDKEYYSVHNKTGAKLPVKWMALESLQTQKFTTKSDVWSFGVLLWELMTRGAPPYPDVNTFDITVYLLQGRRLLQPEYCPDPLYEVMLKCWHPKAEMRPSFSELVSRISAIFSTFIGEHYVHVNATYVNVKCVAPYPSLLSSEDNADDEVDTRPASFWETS
How it was run: (§16)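 Wild-type or mutant MET pre-incubated 10 min with compound (10 concentrations, 3-fold dilutions, duplicates), then TK-substrate-biotin/ATP added for 50 or 10 min at room temperature in buffer with 5 mM MgCl2, 1 mM DTT, 1 mM MnCl2. HTRF read at 665/615 nm; % inhibition vs controls, IC50 by nonlinear sigmoidal fit.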

MET F1200I = biological target: T2, MET F1200I (Homo sapiens, UniProt P08581, F1200I); assay: Kinase inhibition experiment (HTRF KinEASE-TK kit), mutant MET F1200I; assay type: biochemical; details: 10 concentrations, 3-fold dilution
T2 construct: purchased Signalchem M52-12GG/Y767-2
T2 sequence (P08581 25-1390 F1200I): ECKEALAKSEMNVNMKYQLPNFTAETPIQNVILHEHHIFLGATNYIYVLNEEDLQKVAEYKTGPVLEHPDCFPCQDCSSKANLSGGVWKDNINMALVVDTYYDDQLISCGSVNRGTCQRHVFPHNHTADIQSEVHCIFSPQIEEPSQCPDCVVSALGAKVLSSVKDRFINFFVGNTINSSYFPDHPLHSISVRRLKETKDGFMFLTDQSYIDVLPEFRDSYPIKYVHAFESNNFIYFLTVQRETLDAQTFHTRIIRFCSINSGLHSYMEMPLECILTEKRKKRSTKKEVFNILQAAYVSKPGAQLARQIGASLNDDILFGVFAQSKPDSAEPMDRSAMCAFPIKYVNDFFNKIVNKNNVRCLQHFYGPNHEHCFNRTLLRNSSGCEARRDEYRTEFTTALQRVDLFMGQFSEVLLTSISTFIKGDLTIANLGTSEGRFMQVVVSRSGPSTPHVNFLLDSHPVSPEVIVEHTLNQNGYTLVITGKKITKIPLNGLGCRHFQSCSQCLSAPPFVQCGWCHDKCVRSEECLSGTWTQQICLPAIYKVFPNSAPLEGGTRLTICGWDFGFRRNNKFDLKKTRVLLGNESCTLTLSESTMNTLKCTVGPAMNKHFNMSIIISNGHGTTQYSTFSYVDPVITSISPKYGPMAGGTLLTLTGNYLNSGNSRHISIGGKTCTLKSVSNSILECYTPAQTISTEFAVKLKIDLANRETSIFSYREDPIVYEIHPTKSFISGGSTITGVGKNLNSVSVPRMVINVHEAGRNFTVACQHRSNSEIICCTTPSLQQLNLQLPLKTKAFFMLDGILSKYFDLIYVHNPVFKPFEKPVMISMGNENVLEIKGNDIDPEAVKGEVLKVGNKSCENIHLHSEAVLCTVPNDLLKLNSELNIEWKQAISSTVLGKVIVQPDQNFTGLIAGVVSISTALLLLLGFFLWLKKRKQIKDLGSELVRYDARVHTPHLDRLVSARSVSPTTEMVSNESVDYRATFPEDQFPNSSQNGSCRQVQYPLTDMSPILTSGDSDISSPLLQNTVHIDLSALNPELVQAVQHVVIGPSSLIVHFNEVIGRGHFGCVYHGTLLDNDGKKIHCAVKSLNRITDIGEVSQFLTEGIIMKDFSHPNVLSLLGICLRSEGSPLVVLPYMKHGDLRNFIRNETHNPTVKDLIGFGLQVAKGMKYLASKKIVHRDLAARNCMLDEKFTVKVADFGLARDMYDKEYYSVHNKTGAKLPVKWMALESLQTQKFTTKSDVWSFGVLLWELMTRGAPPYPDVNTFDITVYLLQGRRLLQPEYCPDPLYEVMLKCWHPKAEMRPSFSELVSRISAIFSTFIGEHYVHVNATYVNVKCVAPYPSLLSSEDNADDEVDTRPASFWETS
How it was run: as §16

MET D1228N = biological target: T3, MET D1228N (Homo sapiens, UniProt P08581, D1228N); assay: Kinase inhibition experiment (HTRF KinEASE-TK kit), mutant MET D1228N; assay type: biochemical; details: 10 concentrations, 3-fold dilution
T3 construct: purchased Signalchem M52-12IG
T3 sequence (P08581 25-1390 D1228N): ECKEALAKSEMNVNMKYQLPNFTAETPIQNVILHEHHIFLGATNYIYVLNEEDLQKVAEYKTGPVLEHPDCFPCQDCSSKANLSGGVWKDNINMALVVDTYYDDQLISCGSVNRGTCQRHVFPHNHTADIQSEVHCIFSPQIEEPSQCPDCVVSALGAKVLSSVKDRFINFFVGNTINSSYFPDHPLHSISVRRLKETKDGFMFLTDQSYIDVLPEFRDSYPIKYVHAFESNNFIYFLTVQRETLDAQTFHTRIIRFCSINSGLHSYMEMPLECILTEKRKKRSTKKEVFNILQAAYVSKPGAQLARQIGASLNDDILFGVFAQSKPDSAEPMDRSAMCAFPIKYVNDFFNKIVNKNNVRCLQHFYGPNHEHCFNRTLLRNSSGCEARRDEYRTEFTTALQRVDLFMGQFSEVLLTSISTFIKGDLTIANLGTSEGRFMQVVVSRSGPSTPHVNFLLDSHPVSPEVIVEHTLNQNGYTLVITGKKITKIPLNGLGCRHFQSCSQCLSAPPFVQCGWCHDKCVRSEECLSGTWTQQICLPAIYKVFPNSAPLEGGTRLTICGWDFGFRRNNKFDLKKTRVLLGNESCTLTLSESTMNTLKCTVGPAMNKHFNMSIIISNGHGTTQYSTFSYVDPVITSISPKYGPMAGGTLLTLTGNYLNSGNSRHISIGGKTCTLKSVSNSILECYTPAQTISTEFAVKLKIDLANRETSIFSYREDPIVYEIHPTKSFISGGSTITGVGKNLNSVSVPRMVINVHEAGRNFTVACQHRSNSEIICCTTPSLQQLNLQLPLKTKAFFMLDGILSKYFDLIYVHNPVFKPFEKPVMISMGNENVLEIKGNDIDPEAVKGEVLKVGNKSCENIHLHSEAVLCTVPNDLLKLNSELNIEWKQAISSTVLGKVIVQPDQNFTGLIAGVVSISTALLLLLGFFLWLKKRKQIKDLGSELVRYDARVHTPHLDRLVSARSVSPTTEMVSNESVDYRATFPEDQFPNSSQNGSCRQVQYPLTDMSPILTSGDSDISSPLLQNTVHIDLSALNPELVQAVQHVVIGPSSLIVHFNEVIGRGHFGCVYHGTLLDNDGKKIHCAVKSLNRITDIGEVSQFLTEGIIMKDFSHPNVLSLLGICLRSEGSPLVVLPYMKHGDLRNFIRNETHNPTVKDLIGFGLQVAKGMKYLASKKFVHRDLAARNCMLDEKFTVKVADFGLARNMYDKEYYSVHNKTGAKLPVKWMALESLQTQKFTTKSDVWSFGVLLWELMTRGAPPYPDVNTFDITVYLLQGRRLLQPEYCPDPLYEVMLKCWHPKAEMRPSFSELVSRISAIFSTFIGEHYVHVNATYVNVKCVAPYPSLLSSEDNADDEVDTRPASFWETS
How it was run: as §16

Hs746T cell line = assay: Cell proliferation inhibition experiment (CellTiter-Glo), Hs746T; assay type: cell-based; details: Homo sapiens, Hs 746T, CTG, 72 h
Description: as §1, §2, §3, §4, §5, §6, §7, §8, §9, §10, §11, §12, §13, §14, §15

SMILES | IC50 (EBC-1 cell line) | IC50 (H1993 cell line) | IC50 [1] | IC50 (MET F1200I) | IC50 (MET D1228N) | IC50 (Hs746T cell line)
O=C(Nc1ccc(Oc2ccnc3[nH]cc(-c4cccnc4)c23)c(F)c1)c1ccc(Cl)c(-c2ccc(F)cc2)[n+]1[O-] [Final product 185, reference compound] | 133 nM | 204 nM | 20.4 nM | 187 nM | 62 nM | 155 nM
CCC(CO)Nc1n[nH]c2nccc(Oc3ccc(NC(=O)c4cccc(-c5ccc(F)cc5)[n+]4[O-])cc3F)c12 (stereo not drawn) [Final product 4] | 14.4 nM | 54.9 nM | 2.2 nM | 10 nM | 15.7 nM | 12.6 nM
CCc1ccc(C(=O)Nc2ccc(Oc3ccnc4[nH]nc(N[C@H](C)CO)c34)c(F)c2)[n+]([O-])c1-c1ccc(F)cc1 [Final product 80] | 8.7 nM | 26.8 nM | 1.5 nM | 2.3 nM | 9.8 nM | 9.6 nM
COc1ccc(C(=O)Nc2ccc(Oc3ccnc4[nH]nc(N[C@H](C)CO)c34)c(F)c2)[n+]([O-])c1-c1ccc(F)cc1 [Final product 85] | 10.4 nM | 29.6 nM | 3.7 nM | 2.3 nM | 10.5 nM | 9.4 nM
C[C@H](CO)Nc1n[nH]c2nccc(Oc3ccc(NC(=O)c4ccc(F)c(-c5ccc(F)cc5)[n+]4[O-])cc3F)c12 [Final product 53] | 15.7 nM | 29 nM | 2 nM | 8.7 nM | 4.8 nM | 14.6 nM
C[C@H](CO)Nc1n[nH]c2nccc(Oc3ccc(NC(=O)c4ccc(F)c(-c5ccc(F)cc5)[n+]4[O-])cc3Cl)c12 [Final product 117] | 17.2 nM | 57.2 nM | 0.9 nM | 0.9 nM | 17.8 nM | 7 nM
C[C@H](CO)Nc1n[nH]c2nccc(Oc3ccc(NC(=O)c4ccc(Cl)c(-c5ccc(F)cc5)[n+]4[O-])cc3F)c12 [Final product 57] | 19.6 nM | 59.5 nM | 1.6 nM | 2.8 nM | 28.5 nM | 11.4 nM
COc1ccc(C(=O)Nc2ccc(Oc3ccnc4[nH]nc(N[C@H](C)CO)c34)c(Cl)c2)[n+]([O-])c1-c1ccc(F)cc1 [Final product 138] | 9.4 nM | 29.3 nM | 1.6 nM | 0.6 nM | 38.5 nM | 8.7 nM

— patent US20250092033A1, “HETEROAROMATIC NITROGEN-OXIDE COMPOUND, PREPARATION METHOD THEREFOR, AND USE THEREOF” (BEIJING AVISTONE BIOTECHNOLOGY CO., LTD., priority 2021, published 2025)
